# Experimental data as given in ChEMBL document CHEMBL1153245, “A profile of the in vitro anti-tumor activity of imidazolium-based ionic liquids” (2010).
# Tests used:
# Format in all cases: functional
# [1] = system: NCI/ADR-RES; assay: Anticancer activity against human NCI/ADR-RES cells assessed cell growth at 10 uM after 48 hrs by sulforhodamine B assay relative to control
# [2] = system: CCRF-CEM; assay: Anticancer activity against human CCRF-CEM cells after 48 hrs by sulforhodamine B assay; conditions: Homo sapiens, CCRF-CEM, 48 h
# [3] = system: EKVX; assay: Anticancer activity against human EKVX cells after 48 hrs by sulforhodamine B assay; conditions: Homo sapiens, EKVX, 48 h; for CC50: read-out: LC50 (the source's name)
# [4] = system: HOP-62; assay: Anticancer activity against human HOP62 cells after 48 hrs by sulforhodamine B assay; conditions: Homo sapiens, HOP-62, 48 h; for CC50: read-out: LC50 (the source's name)
# [5] = system: NCI-H226; assay: Anticancer activity against human NCI-H226 cells after 48 hrs by sulforhodamine B assay; conditions: Homo sapiens, NCI-H226, 48 h
# [6] = system: NCI-H460; assay: Anticancer activity against human NCI-H460 cells after 48 hrs by sulforhodamine B assay; conditions: Homo sapiens, NCI-H460, 48 h
# [7] = system: NCI-H522; assay: Anticancer activity against human NCI-H522 cells after 48 hrs by sulforhodamine B assay; conditions: Homo sapiens, NCI-H522, 48 h
# [8] = system: SW-620; assay: Anticancer activity against human SW620 cells after 48 hrs by sulforhodamine B assay; conditions: Homo sapiens, SW-620, 48 h
# [9] = system: SF-268; assay: Anticancer activity against human SF268 cells after 48 hrs by sulforhodamine B assay; conditions: Homo sapiens, SF-268, 48 h; for CC50: read-out: LC50 (the source's name)
# [10] = system: SF-295; assay: Anticancer activity against human SF295 cells after 48 hrs by sulforhodamine B assay; conditions: Homo sapiens, SF-295, 48 h; for CC50: read-out: LC50 (the source's name)
# [11] = system: SNB-19; assay: Anticancer activity against human SNB19 cells after 48 hrs by sulforhodamine B assay; conditions: Homo sapiens, SNB-19, 48 h; for CC50: read-out: LC50 (the source's name)
# [12] = system: SNB-75; assay: Anticancer activity against human SNB75 cells after 48 hrs by sulforhodamine B assay; conditions: Homo sapiens, SNB-75, 48 h; for CC50: read-out: LC50 (the source's name)
# [13] = system: LOX IMVI; assay: Anticancer activity against human LOXIMVI cells after 48 hrs by sulforhodamine B assay; conditions: Homo sapiens, LOX IMVI, 48 h; for CC50: read-out: LC50 (the source's name)
# [14] = system: K562; assay: Anticancer activity against human K562 cells assessed cell growth at 10 uM after 48 hrs by sulforhodamine B assay relative to control
# [15] = system: MOLT-4; assay: Anticancer activity against human MOLT4 cells assessed cell growth at 10 uM after 48 hrs by sulforhodamine B assay relative to control
# [16] = system: SR; assay: Anticancer activity against human SR cells assessed cell growth at 10 uM after 48 hrs by sulforhodamine B assay relative to control
# [17] = system: A549; assay: Anticancer activity against human A549 cells assessed cell growth at 10 uM after 48 hrs by sulforhodamine B assay relative to control
# [18] = system: NCI-H226; assay: Anticancer activity against human NCI-H226 cells assessed cell growth at 10 uM after 48 hrs by sulforhodamine B assay relative to control
# [19] = system: COLO 205; assay: Anticancer activity against human COLO205 cells assessed cell growth at 10 uM after 48 hrs by sulforhodamine B assay relative to control
# [20] = system: HCC 2998; assay: Anticancer activity against human HCC2998 cells assessed cell growth at 10 uM after 48 hrs by sulforhodamine B assay relative to control
# [21] = system: HT-29; assay: Anticancer activity against human HT-29 cells assessed cell growth at 10 uM after 48 hrs by sulforhodamine B assay relative to control
# [22] = system: M14; assay: Anticancer activity against human M14 cells assessed cell growth at 10 uM after 48 hrs by sulforhodamine B assay relative to control
# [23] = system: SK-MEL-5; assay: Anticancer activity against human SK-MEL-5 cells assessed cell growth at 10 uM after 48 hrs by sulforhodamine B assay relative to control
# [24] = system: UACC-62; assay: Anticancer activity against human UACC62 cells assessed cell growth at 10 uM after 48 hrs by sulforhodamine B assay relative to control
# [25] = system: OVCAR-3; assay: Anticancer activity against human OVCAR-3 cells assessed cell growth at 10 uM after 48 hrs by sulforhodamine B assay relative to control
# [26] = system: A498; assay: Anticancer activity against human A498 cells assessed cell growth at 10 uM after 48 hrs by sulforhodamine B assay relative to control
# [27] = system: SK-MEL-5; assay: Anticancer activity against human SK-MEL-5 cells after 48 hrs by sulforhodamine B assay; conditions: Homo sapiens, SK-MEL-5, 48 h; for CC50: read-out: LC50 (the source's name)
# [28] = system: UACC-257; assay: Anticancer activity against human UACC257 cells after 48 hrs by sulforhodamine B assay; conditions: Homo sapiens, UACC-257, 48 h
# [29] = system: UACC-62; assay: Anticancer activity against human UACC62 cells after 48 hrs by sulforhodamine B assay; conditions: Homo sapiens, UACC-62, 48 h
# [30] = system: OVCAR-3; assay: Anticancer activity against human OVCAR-3 cells after 48 hrs by sulforhodamine B assay; conditions: Homo sapiens, OVCAR-3, 48 h
# [31] = system: OVCAR-4; assay: Anticancer activity against human OVCAR4 cells after 48 hrs by sulforhodamine B assay; conditions: Homo sapiens, OVCAR-4, 48 h; for CC50: read-out: LC50 (the source's name)
# [32] = system: 786-0; assay: Anticancer activity against human 786-0 cells after 48 hrs by sulforhodamine B assay; conditions: Homo sapiens, 786-0, 48 h
# [33] = system: A498; assay: Anticancer activity against human A498 cells after 48 hrs by sulforhodamine B assay; conditions: Homo sapiens, A498, 48 h; for CC50: read-out: LC50 (the source's name)
# [34] = system: CAKI-1; assay: Anticancer activity against human Caki1 cells after 48 hrs by sulforhodamine B assay; conditions: Homo sapiens, CAKI-1, 48 h
# [35] = system: UO-31; assay: Anticancer activity against human UO31 cells after 48 hrs by sulforhodamine B assay; conditions: Homo sapiens, UO-31, 48 h
# [36] = system: PC-3; assay: Anticancer activity against human PC3 cells after 48 hrs by sulforhodamine B assay; conditions: Homo sapiens, PC-3, 48 h; for CC50: read-out: LC50 (the source's name)
# [37] = system: DU-145; assay: Anticancer activity against human DU145 cells after 48 hrs by sulforhodamine B assay; conditions: Homo sapiens, DU-145, 48 h; for CC50: read-out: LC50 (the source's name)
# [38] = system: NCI/ADR-RES; assay: Anticancer activity against human NCI/ADR-RES cells after 48 hrs by sulforhodamine B assay; conditions: Homo sapiens, NCI/ADR-RES, 48 h
# [39] = system: MDA-MB-231; assay: Anticancer activity against human MDA-MB-231 cells after 48 hrs by sulforhodamine B assay; conditions: Homo sapiens, MDA-MB-231, 48 h; for CC50: read-out: LC50 (the source's name)
# [40] = Anticancer activity against human Hs 578T cells after 48 hrs by sulforhodamine B assay; conditions: Homo sapiens, Hs-578T, 48 h; for CC50: read-out: LC50 (the source's name)
# [41] = system: T47D; assay: Anticancer activity against human T47D cells after 48 hrs by sulforhodamine B assay; conditions: Homo sapiens, T47D, 48 h; for CC50: read-out: LC50 (the source's name)
smiles,measurement,setting,value
CCCCCCCCCCCCCCCCCC[n+]1ccn(C)c1.FC(F)(F)C(F)(F)[P-](F)(F)(F)(C(F)(F)C(F)(F)F)C(F)(F)C(F)(F)F,Activity,[1],-50.87%
same,GI50,[2],324 nM
same,LC50,[2],> 100 µM
same,GI50,[3],346 nM
same,CC50,[3],8.91 µM
same,GI50,[4],390 nM
same,CC50,[4],6.09 µM
same,GI50,[5],435 nM
same,LC50,[5],8.23 µM
same,GI50,[6],323 nM
same,LC50,[6],4.85 µM
same,GI50,[7],285 nM
same,LC50,[7],4.32 µM
same,GI50,[8],328 nM
same,LC50,[8],3.74 µM
same,GI50,[9],481 nM
same,CC50,[9],5.79 µM
same,GI50,[10],275 nM
same,CC50,[10],5.77 µM
same,GI50,[11],422 nM
same,CC50,[11],3.95 µM
same,GI50,[12],419 nM
same,CC50,[12],> 100 µM
same,GI50,[13],164 nM
same,CC50,[13],678 nM
same,Activity,[14],26.87%
same,Activity,[15],17.16%
same,Activity,[16],24.53%
same,Activity,[17],-19.59%
same,Activity,[18],-58.27%
same,Activity,[19],5.01%
same,Activity,[20],-80.57%
same,Activity,[21],-41.19%
same,Activity,[22],-26.94%
same,Activity,[23],-77.4%
same,Activity,[24],-73.94%
same,Activity,[25],-53.86%
same,Activity,[26],-47.4%
same,GI50,[27],313 nM
same,CC50,[27],3.31 µM
same,GI50,[28],523 nM
same,LC50,[28],9.71 µM
same,GI50,[29],500 nM
same,LC50,[29],4.66 µM
same,GI50,[30],316 nM
same,LC50 (50% lethal concentration),[30],3.79 µM
same,GI50,[31],320 nM
same,CC50,[31],> 100 µM
same,GI50,[32],425 nM
same,LC50 (50% lethal concentration),[32],5.36 µM
same,GI50,[33],371 nM
same,CC50,[33],3.39 µM
same,GI50,[34],293 nM
same,LC50,[34],7.46 µM
same,GI50,[35],365 nM
same,LC50,[35],5.31 µM
same,GI50,[36],276 nM
same,CC50,[36],8.03 µM
same,GI50,[37],495 nM
same,CC50,[37],4.43 µM
same,GI50,[38],412 nM
same,LC50,[38],12.5 µM
same,GI50,[39],378 nM
same,CC50,[39],4.82 µM
same,GI50,[40],287 nM
same,CC50,[40],5.43 µM
same,GI50,[41],282 nM
same,CC50,[41],63.7 µM
CCCCCCCCCCCCCCCCCC[n+]1ccn(C)c1.O=S(=O)([N-]S(=O)(=O)C(F)(F)F)C(F)(F)F,Activity,[1],-7.98%
same,GI50,[2],458 nM
same,LC50,[2],> 100 µM
same,GI50,[3],673 nM
same,CC50,[3],5.76 µM
same,GI50,[4],1110 nM
same,CC50,[4],9.79 µM
same,GI50,[5],1260 nM
same,LC50,[5],8 µM
same,GI50,[6],663 nM
same,LC50,[6],5.24 µM
same,GI50,[7],1020 nM
same,LC50,[7],> 100 µM
same,GI50,[8],520 nM
same,LC50,[8],6.48 µM
same,GI50,[9],1140 nM
same,CC50,[9],6.29 µM
same,GI50,[10],484 nM
same,CC50,[10],6.61 µM
same,GI50,[11],1180 nM
same,CC50,[11],4.95 µM
same,GI50,[12],530 nM
same,CC50,[12],5.71 µM
same,GI50,[13],406 nM
same,CC50,[13],5240 nM
same,Activity,[14],17.9%
same,Activity,[15],9.25%
same,Activity,[16],19%
same,Activity,[17],-47.24%
same,Activity,[18],-61.74%
same,Activity,[19],-47.26%
same,Activity,[20],-80.86%
same,Activity,[21],-36.79%
same,Activity,[22],-30.74%
same,Activity,[23],-74.13%
same,Activity,[24],-82.14%
same,Activity,[25],-56.27%
same,Activity,[26],-44.9%
same,GI50,[27],532 nM
same,CC50,[27],4.21 µM
same,GI50,[28],1530 nM
same,LC50,[28],> 100 µM
same,GI50,[29],1040 nM
same,LC50,[29],5.1 µM
same,GI50,[30],442 nM
same,LC50 (50% lethal concentration),[30],4.71 µM
same,GI50,[31],351 nM
same,CC50,[31],> 100 µM
same,GI50,[32],952 nM
same,LC50 (50% lethal concentration),[32],> 100 µM
same,GI50,[33],1070 nM
same,CC50,[33],6.22 µM
same,GI50,[34],263 nM
same,LC50,[34],6.72 µM
same,GI50,[35],1480 nM
same,LC50,[35],> 100 µM
same,GI50,[36],311 nM
same,CC50,[36],5.26 µM
same,GI50,[37],792 nM
same,CC50,[37],4.69 µM
same,GI50,[38],1240 nM
same,LC50,[38],9.41 µM
same,GI50,[39],1040 nM
same,CC50,[39],5.93 µM
same,GI50,[40],546 nM
same,CC50,[40],8.48 µM
same,GI50,[41],600 nM
same,CC50,[41],> 100 µM
